# From patent EP1310250A1, “Use of the compound 2-methoxyphenyl-1-methyl-5P-methylbenzoyl-pyrrol-2-acetamido acetate for the production of an antiinflammatory drug with prevention of gastric hypersecretion and renal impairment” (MEDOSAN Ricerca S.r.l., priority 1997, dated 1999)
# Assays:
# rat bone marrow = assay: Micronucleus test; type: in vivo
# human lymphocites = assay: Chromosome aberrations in lymphocytes cultivated in vitro; type: cell-based
# [1] = tested on: extra-articular rheumatism; assay: Clinical trials: antiphlogistic activity in extra-articular rheumatism; type: in vivo, man; set-up: key: excellent ^++++; good ^+++; poor ^++
# Description: In extra-articular rheumatism amtolmetin guacyl was compared with diclofenac, naproxen and piperazine propionate.
# [2] = tested on: isolated, perfused, immature rat stomach; assay: Antisecretive activity in vitro, isolated perfused immature rat stomach; details: for Δacid: mean±S.E.
# Description: Male Wistar rats, 250±10 g b.w. (Charles River, Calco, Como, Italy), quarantined for five days prior to the beginning of the trial and divided into groups of 3 animals per cage, were used for determination of gastric lesions and of ID50 determination. Immature male Wistar rats, 30-45 g b.w. (Harlan Nossan, Milano) were used for the determination of the antisecretory effect on isolated rat stomach. The guinea-pigs used were the Dunkin Hartley guinea-pigs (Harlan Nossan, Milano, Italy).
# At the beginning, the isolated, perfused, immature rat stomach, treated externally with the study product, was used. We preferred to use the isolated stomach in toto rather than strips (B.R. No. 18, 19 and 20) in order not to exclude a section of the stomach (the antrum), unimportant for acid secretion but very important for the secretion of bicarbonates and bioactive peptides (b.r. No. 21, 22). The results were encouraging, since amtolmetin guacyl inhibited acid production stimulated by the three classic agonists (histamine, acetilcholine and gastrin) both using varying doses of agonist or varying doses of amtolmetin guacyl (Table 5).
# The results are expressed as mean±S.E.
# [3] = tested on: post-traumatic arthralgia; assay: Clinical trials: analgesic properties in post-traumatic arthralgia; type: in vivo, man; details: Amtolmetin guacyl 600mgx2-daily, Diclofenac 50mgx2-daily, 15 patients each
# Description: The same can be said in the treatment of post-traumatic arthralgia.
# rat gastric mucosa = details: male, Wistar, in vivo, po, 4 days
# Experimental: The animals entered in the trial, randomized and divided into groups of 6 rats each, were fasted for 16 h prior to treatment, with access to water ad libitum. They were re-fed 1 h after drug administration. The compound 2-methoxyphenyl-1-methyl-5p-methylbenzoyl-pyrrol-2-acetamido acetate and the other reference NSAIDs, suspended in 1% carboxymethylcellulose (CMC) solution, were orally administered by gastric gavage in a volume of 6ml/kg for four consecutive days. Controls received the vehicle in the same way as the treated animals. 4 h after the last administration the animals were killed by ether overdose; the stomachs were removed, rinsed with 10 ml of saline and immersed in 1% formalin. They were later opened along the greater curvature and the mucosa examined for lesions.
# The seriousness of the lesion was quantified according to a scale graduated from 1 to 3 according to the size of the lesions: 1= ulcer < 1mm; 2= ulcer 1-2mm; 3= ulcer > 2mm. The total sum was divided by 10 to obtain the "erosion index". The gastric lesions were evaluated by two independent investigators under blind conditions according to Main & Whittle method (BJ Pharmac 1975:53; p. 217-224).
# Since the average daily dose in man (for the anti-inflammatory activity) is 600 mg, the comparative efficacious dose in the rat is in the ratio of 12:1. More precisely, comparative evaluation with the other NSAID compounds was calculated as follows: 600 mg/die: 50 mg/kg = daily dose of reference NSAID in man: X [formula] where X represents the daily dose of the reference NSAID in rat. This criterion keeps into account the "real" activity ratio in man. In this work the "ratio to rat dosage" has also been included which keeps into account ratios homogeneous to the same animal species. To evaluate the "ratio to rat dosage" the ID50 has been determined using the carrageenin-induced oedema as inflammatory test.
# In order to exacerbate possible side effects on the stomach the dosage of amtolmetin guacyl was quadruplicated.
# [4] = tested on: fertility, embriotoxicity and teratogenicity; assay: Fertility, embryotoxicity and teratogenicity studies, rabbit; type: in vivo
# gastric mucosa = assay: Histological evaluation of the gastric mucosa by an independent laboratory; details: oral gavage: amtolmetin guacyl 50 mg/kg, diclofenac 7.5 mg/kg, tolmetin 66.6 mg/kg
# Experimental: In order to obtain a histological evaluation of the results obtained in our laboratories, an independent laboratory was provided with identical samples of the material evaluated by us, under totally blind conditions.
# Controls received the vehicle only, also by oral gavage. 4 h after the final administration the animals were killed by ether overdose and the stomachs removed, rinsed in saline and immersed in formalin 4%.
# post-operative pain = assay: Clinical trials: analgesic properties in post-operative pain; type: in vivo, man; set-up: key to Antiphlogistic activity evaluation: excellent ^++++; good ^+++; poor ^++
# Experimental: As reported in Table 14, the analgesic properties of amtolmetin guacyl were tested in postoperative pain with good results. […] The peak effect is obtained only after 2 hours, and it is maintained for 6 hours.
# COX2 (cyclooxygenase 2) = target: T1, COX2 (cyclooxygenase 2) (Rattus norvegicus, UniProt P35355); assay: Pharmacological studies in rats: COX2 inhibition; type: in vivo; details: studies conducted in rats
# T1 construct: from tissue; host or cells: rat (in vivo pharmacological studies; tissue not given)
# T1 sequence (P35355 18-604): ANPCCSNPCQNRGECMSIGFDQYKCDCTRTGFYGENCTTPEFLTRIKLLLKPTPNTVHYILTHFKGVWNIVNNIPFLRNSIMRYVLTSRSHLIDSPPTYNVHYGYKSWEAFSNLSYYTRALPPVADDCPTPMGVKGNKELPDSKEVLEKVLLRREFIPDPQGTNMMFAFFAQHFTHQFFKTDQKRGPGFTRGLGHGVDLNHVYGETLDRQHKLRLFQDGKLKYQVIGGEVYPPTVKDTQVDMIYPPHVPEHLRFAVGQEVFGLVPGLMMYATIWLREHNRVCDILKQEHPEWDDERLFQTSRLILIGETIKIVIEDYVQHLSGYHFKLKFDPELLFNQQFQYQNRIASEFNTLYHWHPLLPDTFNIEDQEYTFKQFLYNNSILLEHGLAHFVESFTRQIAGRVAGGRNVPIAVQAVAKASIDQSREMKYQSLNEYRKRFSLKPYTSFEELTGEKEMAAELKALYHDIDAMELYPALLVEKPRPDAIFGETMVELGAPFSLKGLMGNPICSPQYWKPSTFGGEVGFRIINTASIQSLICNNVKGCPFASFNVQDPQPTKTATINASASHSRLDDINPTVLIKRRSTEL
# osteoarthritis = assay: Clinical trials: antiphlogistic activity in osteoarthritis; type: in vivo, man; set-up: key to Antiphlogistic activity evaluation: excellent ^++++; good ^+++; poor ^++
# Description: In this degenerative disease amtolmetin guacyl was compared with diclofenac, diflunisal, flurbiprofen, ibuprofen, ketoprofen, naproxen and tolmetin.
# diuresis = assay: Diuresis in normally hydrated rats; type: in vivo; details: normally hydrated rats treated orally for 8 consecutive days (figure 13)
# Experimental: In the course of various studies conducted on animals to show the lack of renal impairment, a test was carried out to compare the diuresis in normally hydrated rats treated orally for 8 consecutive days with amtolmeting guacyl and diclofenac, which is also a NSAID.
# H2 receptors = target: T2, H2 receptors (Cavia porcellus, UniProt P47747); assay: Effect on H2 receptors of isolated atrium, histamine stimulation; details: guinea-pig atrium, stimulation by histamine (fig. 5)
# T2 construct: an organ in which only H2 receptors were present (guinea-pig atrium); from tissue; host or cells: guinea-pig atrium (isolated organ)
# T2 sequence (P47747 whole entry): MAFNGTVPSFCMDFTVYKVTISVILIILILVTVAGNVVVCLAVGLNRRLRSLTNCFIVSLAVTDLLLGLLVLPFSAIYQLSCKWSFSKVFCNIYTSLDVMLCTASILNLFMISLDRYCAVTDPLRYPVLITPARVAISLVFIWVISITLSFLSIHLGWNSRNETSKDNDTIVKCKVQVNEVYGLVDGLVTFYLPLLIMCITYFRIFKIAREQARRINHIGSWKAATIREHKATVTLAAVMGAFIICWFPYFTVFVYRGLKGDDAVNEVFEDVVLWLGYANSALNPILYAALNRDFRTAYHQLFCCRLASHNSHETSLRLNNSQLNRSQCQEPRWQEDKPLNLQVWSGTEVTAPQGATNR
# Description: On the basis of the above series of observations, we decided to study the pharmacological behaviour of a number of widely used NSAIDs (including amtolmetin guacyl) towards the gastric mucosa in the rat, as previously described. […] The first hypothesis was that we were deling with an anti-H2 drug, given the fact that its potency could be compared with that of cimetidine.
# [5] = agonist Acetylcholine 10^-3 M, antagonist 10^-4 M
# [6] = agonist Gastrin 6x10^-7 M, antagonist 10^-4 M
# [7] = agonist Histamine 10^-3 M, antagonist 10^-4 M
# [8] = agonist Histamine 10^-4 M, antagonist 10^-4 M
# [9] = agonist Histamine 10^-4 M, antagonist 10^-5 M
smiles,measurement,setting,value
"COc1ccccc1OC(=O)CNC(=O)Cc1ccc(C(=O)c2ccc(C)cc2)n1C [amtolmetin guacyl, 2-methoxyphenyl-1-methyl-5p-methylbenzoylpyrrol-2-acetamido acetate]",micronucleus test,rat bone marrow,absence of amtolmetin guacyl-related damage
same,chromosomic aberrations,human lymphocites,absence of amtolmetin guacyl-related damage
same,Antiphlogistic activity evaluation,[1],^+++
same,% inhib.,[2]; [5],21.5%
same,Δacid,[2]; [5],71.2 ± 5.4 nmol/min
same,% inhib.,[2]; [6],52.1%
same,Δacid,[2]; [6],30.7 ± 3.7 nmol/min
same,% inhib.,[2]; [7],57.7%
same,Δacid,[2]; [7],17.9 ± 2.1 nmol/min
same,% inhib.,[2]; [8],62.6%
same,Δacid,[2]; [8],19.2 ± 5.4 nmol/min
same,% inhib.,[2]; [9],68.7%
same,Δacid,[2]; [9],16.1 ± 5.4 nmol/min
same,Duration,[3],360 min
same,Latency,[3],20 min
same,Max. time effect,[3],60 min
same,Gastrolesive index,rat gastric mucosa,1.0
same,"fertility, embriotoxicity and teratogenicity",[4],demonstrated the safety product
same,Histology,gastric mucosa,no histological lesions
same,Macroscopic findings,gastric mucosa; single animals,0
same,Microscopic findings,gastric mucosa; single animals,0
same,Antiphlogistic activity evaluation,post-operative pain,^++++
same,time for which the effect is maintained,post-operative pain,6 h
same,Duration,"post-operative pain; 1200mg, 100 patients",360 min
same,Latency,"post-operative pain; 1200mg, 100 patients",30 min
same,Max. time effect,"post-operative pain; 1200mg, 100 patients",180 min
same,time at which the antalgic effect is already evaluable,post-operative pain; following administration,30 '
same,inhibition of COX2,COX2 (cyclooxygenase 2),inhibition
same,Evaluation of antiphlogistic activity,"osteoarthritis; 550 patients, mean 80 days, versus Diclofenac, Diflunisal, Flurbiprofen, Ibuprofen, Ketoprofen, Naproxen, Tolmetin",Amtolmetin guacyl was more rapid and more active in a statistically significant manner in osteoarthritis compared to the reference NSAIDs.
same,Antiphlogistic activity evaluation,osteoarthritis; Osteoarthritis,^++++
same,diuresis,diuresis,definite increase in diuresis
same,interference with the H2 receptors,H2 receptors,did not interfere with the H2 receptors
